In ChEMBL document CHEMBL1126477 (Bioorg Med Chem Lett, 1993):

Columns and labels:
Rattus norvegicus [1] = assay: The compound was tested for antihypertensive activity in renal hypertensive rat after intravenous administration; type: functional
Rattus norvegicus [2] = assay: The compound was tested for antihypertensive activity in renal hypertensive rat after oral administration; type: functional
Angiotensin II receptor = molecular target: T1, Angiotensin II receptor (Rattus norvegicus, UniProt P29089+P25095+P35351); assay: Angiotensin II receptor antagonist activity was determined by 50% inhibition of specific binding of [3H]angiotensin II (2 nM) to rat adrenal cortical microsomes
T1 sequence (P29089 whole entry): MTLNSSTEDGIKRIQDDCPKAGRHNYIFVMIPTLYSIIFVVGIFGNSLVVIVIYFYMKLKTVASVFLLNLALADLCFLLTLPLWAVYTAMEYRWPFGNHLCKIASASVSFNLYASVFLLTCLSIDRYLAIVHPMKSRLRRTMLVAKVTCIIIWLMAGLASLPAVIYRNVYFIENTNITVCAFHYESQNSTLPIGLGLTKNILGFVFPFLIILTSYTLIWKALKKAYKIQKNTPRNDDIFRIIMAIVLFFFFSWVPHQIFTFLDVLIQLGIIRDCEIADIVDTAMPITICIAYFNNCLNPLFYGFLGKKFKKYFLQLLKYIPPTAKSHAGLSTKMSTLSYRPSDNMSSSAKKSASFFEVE
T1 sequence (P25095 whole entry): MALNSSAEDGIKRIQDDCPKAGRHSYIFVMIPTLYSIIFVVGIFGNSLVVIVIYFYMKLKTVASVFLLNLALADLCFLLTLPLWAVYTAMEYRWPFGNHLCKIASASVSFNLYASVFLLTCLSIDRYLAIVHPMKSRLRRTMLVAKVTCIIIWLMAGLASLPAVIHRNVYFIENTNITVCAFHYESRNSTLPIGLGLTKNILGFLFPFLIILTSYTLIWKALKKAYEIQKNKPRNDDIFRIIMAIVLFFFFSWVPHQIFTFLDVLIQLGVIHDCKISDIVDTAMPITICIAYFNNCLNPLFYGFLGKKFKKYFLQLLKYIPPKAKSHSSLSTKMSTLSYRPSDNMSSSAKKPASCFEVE
T1 sequence (P35351 whole entry): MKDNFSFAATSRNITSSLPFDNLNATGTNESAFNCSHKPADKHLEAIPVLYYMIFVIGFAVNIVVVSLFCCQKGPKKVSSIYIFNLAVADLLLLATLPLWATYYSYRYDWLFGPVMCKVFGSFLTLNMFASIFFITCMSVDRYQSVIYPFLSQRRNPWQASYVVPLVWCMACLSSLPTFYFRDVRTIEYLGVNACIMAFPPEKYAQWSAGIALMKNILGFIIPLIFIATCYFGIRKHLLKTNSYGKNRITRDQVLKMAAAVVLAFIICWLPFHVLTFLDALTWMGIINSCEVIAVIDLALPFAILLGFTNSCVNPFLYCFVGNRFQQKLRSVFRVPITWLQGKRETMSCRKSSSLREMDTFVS

SMILES | ED30 (Rattus norvegicus [1]) | ED30 (Rattus norvegicus [2]) | IC50 (Angiotensin II receptor)
CCCc1nc(C(F)(F)F)c(C(=O)O)n1Cc1ccc(-c2ccccc2-c2nn[nH]n2)cc1 | 0.01 mg/kg | 0.79 mg/kg | 
CCCc1nc(C(F)(F)C(F)(F)F)c(CO)n1Cc1ccc(-c2ccccc2C(=O)O)cc1 |  |  | 48 nM
CCCc1nc(C(F)(F)F)c(CO)n1Cc1ccc(-c2ccccc2-c2nn[nH]n2)cc1 |  |  | 6.4 nM
CCCc1nc(C(F)(F)C(F)(F)C(F)(F)C(F)(F)F)c(CO)n1Cc1ccc(-c2ccccc2C(=O)O)cc1 |  |  | 290 nM
CCCCc1nc(Cl)c(C(=O)O)n1Cc1ccc(-c2ccccc2-c2nn[nH]n2)cc1 [CARBOXYLIC ACID METABOLITE] | 0.038 mg/kg | 0.66 mg/kg | 
CCCc1nc(C(F)(F)C(F)(F)C(F)(F)F)c(CO)n1Cc1ccc(-c2ccccc2-c2nn[nH]n2)cc1 |  |  | 13 nM
CCCc1nc(C(F)(F)C(F)(F)C(F)(F)F)c(CO)n1Cc1ccc(-c2ccccc2C(=O)O)cc1 |  |  | 74 nM
CCCc1nc(C(F)(F)C(F)(F)F)c(CO)n1Cc1ccc(-c2ccccc2-c2nn[nH]n2)cc1 |  |  | 1.2 nM
CCCc1nc(C(F)(F)C(F)(F)F)c(C(=O)O)n1Cc1ccc(-c2ccccc2-c2nn[nH]n2)cc1 | 0.042 mg/kg | 0.21 mg/kg | 
CCCc1nc(C(F)(F)C(F)(F)C(F)(F)C(F)(F)C(F)(F)C(F)(F)F)c(CO)n1Cc1ccc(-c2ccccc2C(=O)O)cc1 |  |  | 2500 nM
CCCc1nc(C(F)(F)F)c(CO)n1Cc1ccc(-c2ccccc2C(=O)O)cc1 |  |  | 130 nM
CCCc1nc(C(F)(F)C(F)(F)C(F)(F)F)c(C(=O)O)n1Cc1ccc(-c2ccccc2-c2nn[nH]n2)cc1 | 0.62 mg/kg |  | 
